In the NIST ThermoML archive (doi:10.1021/je060271a):

Conditions: 283.15 K, Liquid, Vibrating tube method

CCCCCC(=O)OCC(COC(=O)CCCCC)(COC(=O)CCCCC)COC(=O)CCCCC [pentaerythritol tetrahexanoate]
Conditions	mass density [kg/m3]
219.9 kPa	1004.3
220.4 kPa	1004.3
221.1 kPa	1004.3
221.3 kPa	1004.1
222 kPa	1004.2
222.5 kPa	1004.3
223.2 kPa	1004.1
223.5 kPa	1004.4
224.1 kPa	1004.3
227.9 kPa	1004.2
228.4 kPa	1004.2
228.8 kPa	1004.2
229.3 kPa	1004.3
230 kPa	1004.2
230.8 kPa	1004.4
231.2 kPa	1004.2
232.1 kPa	1004.3
232.4 kPa	1004.2
233.4 kPa	1004.2
233.6 kPa	1004.3
234.8 kPa	1004.1
236 kPa	1004.3
237.6 kPa	1004.4
238.1 kPa	1004.2
238.8 kPa	1004.2
239.2 kPa	1004.3
239.9 kPa	1004.3
240.7 kPa	1004.2
241.4 kPa	1004.3
242 kPa	1004.4
242.8 kPa	1004.3
243.5 kPa	1004.3
243.9 kPa	1004.3
244.9 kPa	1004.3
245.6 kPa	1004.1
246.3 kPa	1004.3
247 kPa	1004.3
247.7 kPa	1004.3
248.6 kPa	1004.3
249.6 kPa	1004.1
249.9 kPa	1004.2
250.5 kPa	1004.3
251.5 kPa	1004.3
251.9 kPa	1004.3
252.2 kPa	1004.3
252.7 kPa	1004.2
253.4 kPa	1004.3
254.6 kPa	1004.3
255.2 kPa	1004.3
256 kPa	1004.3
256.9 kPa	1004.2
257.8 kPa	1004.4
258.6 kPa	1004.3
259.7 kPa	1004.3
260.5 kPa	1004.3
261.2 kPa	1004.3
261.9 kPa	1004.2
262.8 kPa	1004.2
263.5 kPa	1004.4
264.5 kPa	1004.2
265.2 kPa	1004.2
266.4 kPa	1004.3
267 kPa	1004.3
267.8 kPa	1004.2
269.1 kPa	1004.3
269.8 kPa	1004.3
270.8 kPa	1004.3
271.7 kPa	1004.3
272.5 kPa	1004.3
273.4 kPa	1004.3
274.4 kPa	1004.2
275.3 kPa	1004.2
276.4 kPa	1004.3
277.6 kPa	1004.4
278.1 kPa	1004.2
279.1 kPa	1004.3
280.5 kPa	1004.2
281.2 kPa	1004.2
282.6 kPa	1004.3
283.7 kPa	1004.3
284.3 kPa	1004.2
285.7 kPa	1004.3
286.8 kPa	1004.3
287.6 kPa	1004.2
288.9 kPa	1004.2
289.6 kPa	1004.4
290.8 kPa	1004.3
291.8 kPa	1004.2
292.9 kPa	1004.3
294.1 kPa	1004.4
295.1 kPa	1004.3
296.5 kPa	1004.2
297.4 kPa	1004.2
298.6 kPa	1004.1
299.8 kPa	1004.2
300.9 kPa	1004.3
301.9 kPa	1004.3
303.3 kPa	1004.4
304.3 kPa	1004.4
305.5 kPa	1004.3
306.8 kPa	1004.2
308 kPa	1004.4
309.4 kPa	1004.3
310.6 kPa	1004.3
311.5 kPa	1004.3
313 kPa	1004.3
314.1 kPa	1004.2
315.6 kPa	1004.3
317.2 kPa	1004.3
318.8 kPa	1004.2
320.5 kPa	1004.3
322.2 kPa	1004.3
324 kPa	1004.3
325.2 kPa	1004.3
326.4 kPa	1004.3
328.3 kPa	1004.2
329.5 kPa	1004.3
331.8 kPa	1004.2
333.3 kPa	1004.3
335.1 kPa	1004.4
336.8 kPa	1004.3
338.4 kPa	1004.3
340.1 kPa	1004.3
341.9 kPa	1004.3
343.1 kPa	1004.3
344.6 kPa	1004.3
346.7 kPa	1004.4
348.1 kPa	1004.4
349.2 kPa	1004.4
350.2 kPa	1004.3
351.1 kPa	1004.4
352.6 kPa	1004.4
354.7 kPa	1004.4
355.6 kPa	1004.3
357.2 kPa	1004.4
358.9 kPa	1004.3
367.6 kPa	1004.3
369.3 kPa	1004.4
371.3 kPa	1004.5
373.2 kPa	1004.2
375.4 kPa	1004.3
377.5 kPa	1004.3
379.4 kPa	1004.4
381.5 kPa	1004.4
